Assay results: patent US20150306094A1, “TRANS-4--N,N-DIMETHYLCARBAMOYL-CYCLOHEXYLAMINE FOR TREATING NEGATIVE SYMPTOMS OF SCHIZOPHRENIA” (RICHTER GEDEON NYRT., priority 2012, published 2015)
“Also recorded” adds a separate entry of the source.

System: patients with schizophrenia
Assay: international, multicenter, double-blind, placebo- and risperidone-controlled, fixed-dose clinical study
Format: in vivo, human
Settings: for improvement on the PANSS factor score for negative symptoms, subpopulation with predominantly negative symptoms compared to ITT population: 6 week period, risperidone 4 mg/day, FIG. 1-4
Description: In the clinical study beside the ITT (intent to treat) population which included the total number of the patients, a subgroup was identified including patients with predominantly negative symptoms. This subgroup was identical with the patient subpopulation showing severe negative symptoms defined by Lenert et al. (Schizophrenia Research 71 (2004) 155-165). Patients showing severe negative symptoms were separated into two groups: State 4 and State 6 (definitions are described in Example). State 4 and State 6 together represent the patient subpopulation with predominantly negative symptoms.
The term “change from baseline” refers to the change of the value of the PANSS factor score for negative symptoms compared to the value registered before treatment started (at the baseline visit). The values were calculated using least squares method. The least squares mean (LSM) values resulted from the analysis of covariance (ANCOVA) model with treatment group and study center as factors and the baseline PANSS factor score of negative symptoms as the covariate.
PANSS factor score for negative symptoms: Sum of scores for items 1, 2, 3, 4, and 6 in negative subscale: blunted affect, emotional withdrawal, poor rapport, passive social withdrawal, lack of spontaneity; and items 7 and 16 in general psychopathology subscale: motor retardation, and active social avoidance. Higher scores indicate worsening.
A representative clinical study was conducted as an international, multicenter, double-bind, placebo- and risperidone-controlled, fixed-dose trial. The objective of the study was to evaluate the safety and efficacy of cariprazine fixed doses in patients with schizophrenia. A total of 732 patients were selected using criteria that includes patients who (i) currently meet or have met in the past the Diagnostic and Statistical Manual of Mental Disorders, Fourth Edition, Text Revision (DSM-IV-TR) criteria for schizophrenia (295.30 Paranoid Type, 295.10 Disorganized Type, 295.20 Catatonic Type, or 295.90 Undifferentiated Type) based on the Structured Clinical Interview for DSM-IV (SCID), (ii) have a PANSS total score ≧80 and ≦120, (iii) have a score ≧4 on Clinical Global Impression-Severity scale (iv) have a score ≧4 on at least 2 of the following 4 PANSS positive symptoms: delusions, hallucinatory behavior, conceptual disorganization, and suspiciousness/persecution.
During a 6 week period, 3 doses of cariprazine (1.5 mg/day, 3 mg/day, 4.5 mg/day) was compared to placebo and to an effective dose of risperidone (4.0 mg/day).
Beside the ITT (intent to treat) population which included the total number of the patients, a subgroup was identified including patients with predominantly negative symptoms. […]

Row | Compound | improvement on the PANSS factor score for negative symptoms, subpopulation with predominantly negative symptoms compared to ITT population (cariprazine 1.5, 3, 4.5 mg/day) | effect on primary negative symptoms of schizophrenia (conclusion from the clinical study of the Example) | effect of extrapyramidal symptoms (EPS) on the change of PANSS factor score for negative symptoms (week 6, patients with predominantly negative symptoms vs subgroup without EPS, cariprazine 1.5, 3, 4.5 mg/day, FIG. 5)
1 | CN(C)C(=O)N[C@H]1CC[C@H](CCN2CCN(c3cccc(Cl)c3Cl)CC2)CC1 [cariprazine, trans-4-{2-[4-(2,3-dichlorophenyl)-piperazin-1-yl]-ethyl}-N,N-dimethylcarbamoyl-cyclohexylamine] | numerically higher improvement | can be treated effectively; also recorded: direct effect on negative symptoms | does not seem to be influenced by the treatment emergent EPS
2 | Cc1nc2n(c(=O)c1CCN1CCC(c3noc4cc(F)ccc34)CC1)CCCC2 [risperidone, reference compound] | no difference |  | 
